Key:
[1] = HPLC RCP of 99mTc-depreotide with hydrophilic thioether additives (Example 8); format: physicochemical; details: for effect on 99mTc-labelled peptide radiolabelling yield or stability: 99mTc-depreotide; for 3.5 hr RCP / 6.5 hr RCP / Initial RCP: 99mTc-depreotide kit, additive 4 mg, heated prep
Method: Each hydrophilic thioether was dissolved in water made up at 40 mg/mL and adjusted to pH 7 with HCl or NaOH. […] To the control vials were added 100 μL water.

[2] = HPLC RCP of 99mTc-labelled benzodiazepinedione derivative kits with L-methionine (Example 4); format: physicochemical; details: formulated kits
Method: L-methionine was tested for its ability to stabilize a ^99mTc-labelled glycoprotein IIb/IIIa receptor-binding benzodiazepinedione derivative 1-[(carboxyglycyl-glycyl-glycyl-cysteinamide)methyl]-4-(2-carboxyethyl)-7-[(4-amidinophenyl)methyl]-3,4-dihydro-1H-1,4-benzodiazepine-2,5-dione trifluoroacetate, having the structure. [drawing 15]
All formulations were adjusted to pH 7.4 prior to lyophilization.
The lyophilized kits were radiolabelled with ^99mTc by reconstitution with 1.0 mL technetium ^99mTc sodium pertechnetate (Technelite®) containing approximately 50 mCi ^99mTc and heating in a boiling water bath for 10 minutes.

[3] = HPLC RCP of 99mTc-depreotide kits with L-methionine (Example 2); details: formulated kits stored under normal conditions (≦−10° C.)
Method: Lyophilized kit vials were prepared containing depreotide, L-methionine (Met), and other components as described in Table 3. All formulations were adjusted to pH 7.4 prior to lyophilization.
The lyophilized kits were radiolabelled with ^99mTc by reconstitution with 1.0 mL technetium ^99mTc sodium pertechnetate (Technelite®) containing approximately 50 mCi ^99mTc and heating in a boiling water bath for 10 minutes. Some of the formulations were also radiolabelled in a room temperature preparation (allowed to stand at rom temperature 30 minutes following reconstitution).

[4] = HPLC RCP of 99mTc-labelled glycoprotein IIb/IIIa receptor-binding peptide with L-methionine (Example 5); format: physicochemical
Method: Lyophilized kit vials were prepared containing the peptide (50 μg), sodium glucoheptonate dihydrate (10 mg), stannous chloride dihydrate (50 μg), and edetate disodium dihydrate (100 μg). The formulation was adjusted to pH 7.4 prior to lyophilization.
The lyophilized kits were radiolabelled with ^99mTc in the presence and absence of L-methionine. […] Both vials were then reconstituted with 1.0 mL technetium ^99mTc sodium pertechnetate (Technelite®) containing approximately 50 mCi ^99mTc and allowed to incubate for 30 minutes at room temperature.

[5] = HPLC RCP of 99mTc-labelled bisamine bisthiol non-peptide chelator with L-methionine (Example 7); format: physicochemical
Text: The non-peptide chelator was radiolabelled with ^99mTc in the presence and absence of L-methionine using the placebo vial heated preparation procedure as described in Example 6.

| SMILES | effect on 99mTc-labelled peptide radiolabelling yield or stability [1] | 3.5 hr RCP [1] | 6.5 hr RCP [1] | Initial RCP [1] | effect on radiolabelling yield and stability of the 99mTc-labelled benzodiazepinedione derivative [2] | effect on radiolabelling yield and stability of 99mTc-depreotide [3] | effect on radiolabelling yield and stability of the 99mTc-peptide [4] | effect on radiolabelling yield and stability of a 99mTc-labelled non-peptide chelator [5] |
| --- | --- | --- | --- | --- | --- | --- | --- | --- |
| CSCC(O)CO (stereo not shown) [3-Methylthio-1,2-propanediol, 3-methylthio-1,2-propanediol] | increase the radiolabelling yield and the stability | 84.0 | 80.9 | 89.1 | – | – | – | – |
| C[S+]([O-])CC[C@H](N)C(=O)O (stereo partly shown) [Methionine sulfoxide, reference compound] | no effect | – | – | – | – | – | – | – |
| CSCCC=O [3-(methylthio)propionaldehyde, reference compound] | no effect | – | – | – | – | – | – | – |
| CS(=O)(=O)CC[C@H](N)C(=O)O [methionine sulfone, reference compound] | no effect | – | – | – | – | – | – | – |
| CSCC[C@H](N)C(=O)O [L-methionine] | – | 90.4 | 89.3 | 95.0 | increases the radiolabelling yield and the stability | increases the radiolabelling yield and the stability | increases the radiolabelling yield and the stability | increases the radiolabelling yield and the stability |
| CCSCCN [2-(Ethylthio)ethylamine] | increase the radiolabelling yield and the stability | 94.2 | 93.3 | 92.8 | – | – | – | – |
| CSCC[C@H](N)CO [Methioninol, methioninol] | increase the radiolabelling yield and the stability | 93.9 | 90.7 | 94.1 | – | – | – | – |

Reference: patent US20040058984A1, “Stabilization of radiopharmaceutical compositions using hydrophilic thioethers and hydrophilic 6-hydroxy chromans” (priority 2003, published 2004)
